Source: ChEMBL document CHEMBL3351578, “Discovery and pharmacological profile of new hydrophilic 5-HT(4) receptor antagonists” (Bioorg Med Chem Lett, 2014)

Columns and labels:
[1] = Elimination half life in Sprague-Dawley rat at 10 mg/kg, po or 1 mg/kg, iv after 30 mins to 6 hrs by LC/MS/MS method; type: ADME, organism-based; details: in vivo, read-out: beta t1/2
[2] = molecular target: T1, 5-hydroxytryptamine receptor 4 (Homo sapiens, UniProt Q13639); test: Antagonist activity against human 5HT4b receptor expressed in HEK293 cells assessed as reduction in 5-HT-stimulated adenylyl cyclase activity; type: functional, cell-based
[3] = molecular target: Voltage-gated inwardly rectifying potassium channel KCNH2 (Homo sapiens, UniProt Q12809); test: Inhibition of human ERG expressed in HEK293 cells assessed as reduction in channel tail current by patch clamp method; type: cell-based
[4] = Tmax in Sprague-Dawley rat at 10 mg/kg, po or 1 mg/kg, iv after 30 mins to 6 hrs by LC/MS/MS method; type: ADME, organism-based; details: in vivo
[5] = molecular target: T1, 5-hydroxytryptamine receptor 4; test: Displacement of [3H]GR113808 from human 5HT4b receptor expressed in HEK293 cell membranes
[6] = Lipophilicity, log D of the compound at pH 7.4; type: physicochemical; details: buffer
[7] = Oral bioavailability in Sprague-Dawley rat at 10 mg/kg after 30 mins to 6 hrs by LC/MS/MS method; type: ADME, organism-based; details: in vivo

T1 sequence (Q13639 whole entry): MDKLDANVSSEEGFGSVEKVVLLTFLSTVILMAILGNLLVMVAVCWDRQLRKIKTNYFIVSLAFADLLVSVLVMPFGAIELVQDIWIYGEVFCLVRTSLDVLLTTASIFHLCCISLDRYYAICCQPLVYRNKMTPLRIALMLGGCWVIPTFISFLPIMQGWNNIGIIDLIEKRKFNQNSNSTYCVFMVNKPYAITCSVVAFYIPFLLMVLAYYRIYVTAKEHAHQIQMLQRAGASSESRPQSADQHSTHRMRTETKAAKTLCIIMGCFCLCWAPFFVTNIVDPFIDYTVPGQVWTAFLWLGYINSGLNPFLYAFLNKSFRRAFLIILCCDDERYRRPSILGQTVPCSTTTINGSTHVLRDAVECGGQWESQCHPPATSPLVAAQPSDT
Chain of Voltage-gated inwardly rectifying potassium channel KCNH2 (Q12809 whole entry): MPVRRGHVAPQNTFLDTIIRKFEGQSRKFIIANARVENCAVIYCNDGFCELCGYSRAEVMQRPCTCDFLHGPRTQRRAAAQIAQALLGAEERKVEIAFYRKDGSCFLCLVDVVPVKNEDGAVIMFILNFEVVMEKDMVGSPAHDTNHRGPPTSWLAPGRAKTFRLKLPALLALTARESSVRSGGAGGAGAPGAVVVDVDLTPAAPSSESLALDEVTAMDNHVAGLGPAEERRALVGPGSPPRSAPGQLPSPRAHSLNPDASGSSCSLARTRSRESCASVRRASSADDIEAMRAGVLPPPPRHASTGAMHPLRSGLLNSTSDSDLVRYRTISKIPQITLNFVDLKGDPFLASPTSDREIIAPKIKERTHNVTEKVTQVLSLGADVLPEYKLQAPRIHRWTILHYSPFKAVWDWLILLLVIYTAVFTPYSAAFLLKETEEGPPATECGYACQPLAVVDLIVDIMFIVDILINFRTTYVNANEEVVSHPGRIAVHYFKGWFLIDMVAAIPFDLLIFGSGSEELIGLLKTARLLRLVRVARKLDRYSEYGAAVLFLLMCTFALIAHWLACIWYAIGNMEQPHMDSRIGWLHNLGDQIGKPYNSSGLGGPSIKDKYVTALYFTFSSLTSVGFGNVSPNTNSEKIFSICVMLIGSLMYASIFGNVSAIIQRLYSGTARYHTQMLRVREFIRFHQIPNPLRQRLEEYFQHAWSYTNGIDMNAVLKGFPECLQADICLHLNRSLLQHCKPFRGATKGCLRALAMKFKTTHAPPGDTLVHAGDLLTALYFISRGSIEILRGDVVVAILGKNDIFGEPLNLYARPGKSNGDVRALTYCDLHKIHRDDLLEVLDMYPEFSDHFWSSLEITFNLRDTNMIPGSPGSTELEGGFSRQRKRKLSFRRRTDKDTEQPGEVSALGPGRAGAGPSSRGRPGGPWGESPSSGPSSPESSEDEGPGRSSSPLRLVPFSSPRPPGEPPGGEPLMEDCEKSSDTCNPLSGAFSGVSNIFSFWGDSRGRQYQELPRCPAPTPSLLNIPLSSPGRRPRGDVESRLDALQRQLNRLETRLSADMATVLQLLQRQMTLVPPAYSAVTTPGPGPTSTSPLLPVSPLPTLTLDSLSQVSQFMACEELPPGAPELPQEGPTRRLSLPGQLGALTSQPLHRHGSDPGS

O=C(OCC1CCN(CC(O)CO)CC1)c1c2n(c3ccccc13)CCCO2 (stereo not given)
half-life [1]: 2.5 h | pKb [2]: 9.1 | IC50 [3]: 81000 nM | Tmax [4]: 2.42 h | Ki [5]: 0.0794 nM | logD [6]: 0.2 | bioavailability [7]: 10.3%

CC(C)CS(=O)(=O)Nc1ccc(CN2CCC(CNC(=O)c3c4n(c5ccccc35)CCCO4)CC2)cc1
pKb [2]: 9.7 | Ki [5]: 0.0501 nM | logD [6]: 2.2

CC(C)CS(=O)(=O)Nc1ccc(CN2CCC(CNC(=O)c3cccc4c3OCCO4)CC2)cc1
pKb [2]: 8 | Ki [5]: 0.2 nM | logD [6]: 1.8

CS(=O)(=O)Nc1ccc(CN2CCC(CNC(=O)c3cccc4c3OCCO4)CC2)cc1
pKb [2]: 8.3 | Ki [5]: 0.2 nM | logD [6]: 0.5

CS(=O)(=O)Nc1ccc(CN2CCC(CNC(=O)c3c4n(c5ccccc35)CCCO4)CC2)cc1
pKb [2]: 8.3 | Ki [5]: 0.2 nM | logD [6]: 1

O=C(OCC1CCN(CC2C3CC4C2C4C3C(=O)O)CC1)c1c2n(c3ccccc13)CCCO2 (stereo not given)
pKb [2]: 8.4 | Ki [5]: 1.58 nM | logD [6]: 0.7

CC(C(=O)O)c1ccc(CN2CCC(COC(=O)c3c4n(c5ccccc35)CCCO4)CC2)cc1 (stereo not given)
pKb [2]: 8.8 | IC50 [3]: 25000 nM | Ki [5]: 0.316 nM | logD [6]: 1.1

O=C(NCC1CCN(Cc2ccc(NS(=O)(=O)Cc3ccccc3)cc2)CC1)c1c[nH]c2ccccc12
Ki [5]: 1000 nM | logD [6]: 1.2

O=C(NCC1CCN(Cc2ccc(NS(=O)(=O)C3CCCCC3)cc2)CC1)c1c2n(c3ccccc13)CCCO2
pKb [2]: 8 | Ki [5]: 0.2 nM | logD [6]: 2.7

CCCCN1CCC(CNC(=O)c2c3n(c4ccccc24)CCCO3)CC1 [PIBOSEROD]
pKb [2]: 10.5 | Ki [5]: 0.398 nM

O=C(NCC1CCN(Cc2ccc(NS(=O)(=O)C3CCCCC3)cc2)CC1)c1c[nH]c2ccccc12
Ki [5]: 501 nM | logD [6]: 0.5

CCCCS(=O)(=O)Nc1ccc(CN2CCC(CNC(=O)c3c4n(c5ccccc35)CCCO4)CC2)cc1
pKb [2]: 9.7 | Ki [5]: 1 nM | logD [6]: 2.2

O=C(NCC1CCN(Cc2ccc(NS(=O)(=O)C3CCCCC3)cc2)CC1)c1cccc2c1OCCO2
pKb [2]: 7.6 | Ki [5]: 1.26 nM | logD [6]: 2.5

Cn1cc(C(=O)OCC2CCN(CCNS(C)(=O)=O)CC2)c2ccccc21
pKb [2]: 10.1

CCCCS(=O)(=O)Nc1ccc(CN2CCC(CNC(=O)c3cccc4c3OCCO4)CC2)cc1
pKb [2]: 8 | Ki [5]: 0.251 nM | logD [6]: 1.8
